Measurements taken from US7741359B2, “Hydrogen sulfide derivatives of non-steroidal anti-inflammatory drugs” (Antibe Therapeutics Inc., priority 2006, dated 2010).
Entries after “also recorded” stand apart in the source; their conditions may differ. Blank lines part the entries; values can stand above or below the compound they belong to.

Experiments:
COX-2 = target: T1, COX-2 (Rattus norvegicus, UniProt P35355); test: Rat airpouch assay, exudate PGE2 after zymosan (inhibition of COX-2 in vivo)
T1 construct: from tissue; host or cells: rat subcutaneous airpouch (in vivo, zymosan-induced inflammation)
T1 sequence (P35355 18-604): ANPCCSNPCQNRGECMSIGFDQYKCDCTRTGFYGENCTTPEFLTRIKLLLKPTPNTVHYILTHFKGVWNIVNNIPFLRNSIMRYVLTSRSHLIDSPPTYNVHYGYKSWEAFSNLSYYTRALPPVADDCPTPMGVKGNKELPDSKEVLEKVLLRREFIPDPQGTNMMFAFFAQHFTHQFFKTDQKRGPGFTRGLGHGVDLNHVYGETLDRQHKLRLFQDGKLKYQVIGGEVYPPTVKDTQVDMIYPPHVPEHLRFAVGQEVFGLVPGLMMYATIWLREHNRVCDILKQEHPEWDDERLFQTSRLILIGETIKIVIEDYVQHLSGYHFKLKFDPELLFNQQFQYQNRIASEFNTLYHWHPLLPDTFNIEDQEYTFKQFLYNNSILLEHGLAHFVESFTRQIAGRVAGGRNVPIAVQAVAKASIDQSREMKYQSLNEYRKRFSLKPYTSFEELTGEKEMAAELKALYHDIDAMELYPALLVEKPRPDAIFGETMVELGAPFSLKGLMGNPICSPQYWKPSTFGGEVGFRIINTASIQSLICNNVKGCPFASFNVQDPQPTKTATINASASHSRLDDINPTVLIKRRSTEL
Procedure: Briefly, a subcutaneous “pouch” is created by repeated injections of air over several days. Once established, inflammation in the pouch can be induced by injection of 1 mL of 1% zymosan. […] Another group of 5 rats was treated with the vehicle, but received an injection of 0.9% sterile saline into the pouch rather than zymosan. […]
Each group consisted of 5 rats.

[1] = tested on: leukocyte adherence to the vascular endothelium; test: Leukocyte adherence to the vascular endothelium, intravital microscopy of mesenteric venules; conditions: for Number of Adherent Leukocytes: mean ± SEM
Procedure: Briefly, post-capillary mesenteric venules in anesthetized rats are examined under a light microscope. […] All test compounds were prepared in a vehicle of 1% carboxymethylcellulose. Changes in leukocyte adherence within the venule were recorded with a video camera attached to the microscope, and quantification of the numbers of adherent leukocytes was performed in a blind manner through evaluation of the videotaped images. Each group consisted of 5 male, Wistar rats weighing 150-175 g. A leukocyte was considered “adherent” if it remained stationary for 30 seconds or more (results below are expressed as the mean ± SEM).

[2] = Incidence of gastric damage at the end of the leukocyte adherence experiment; conditions: for Percent Incidence of Gastric Damage: end of experiment
Procedure: Briefly, post-capillary mesenteric venules in anesthetized rats are examined under a light microscope. […] All test compounds were prepared in a vehicle of 1% carboxymethylcellulose. Changes in leukocyte adherence within the venule were recorded with a video camera attached to the microscope, and quantification of the numbers of adherent leukocytes was performed in a blind manner through evaluation of the videotaped images. Each group consisted of 5 male, Wistar rats weighing 150-175 g. A leukocyte was considered “adherent” if it remained stationary for 30 seconds or more (results below are expressed as the mean ± SEM). At the end of the experiment the stomach was opened and examined for the presence of gastric damage, under a dissecting microscope.

[3] = Healing of acetic acid-induced gastric ulcers; format: in vivo, rat; conditions: starting 3 days after ulcer induction, FIG. 13
Procedure: Gastric ulcers were induced via serosal application of acetic acid, as described by Elliott et al., A nitric oxide-releasing nonsteroidal anti-inflammatory drug accelerates gastric ulcer healing in rats. Gastroenterology 1995; 109: 524-530. […] After 4 days of such treatment, the rats were euthanized and the stomach was excised and photographed. The area (in mm^2) of the ulcer was determined planimetrically by an individual unaware of the treatments given to the rats. In a subgroup of 5 rats euthanized 3 days after induction of gastric ulcers (i.e., prior to initiation of drug treatment), the mean surface area of the ulcers was 24±2 mm^2.

COX-1 = target: T2, COX-1 (Rattus norvegicus, UniProt Q63921); test: Whole blood thromboxane B2 synthesis of treated rats (inhibition of COX-1); format: in vivo; conditions: for COX-1 activity (whole blood thromboxane B2 synthesis): oral 60 μmol/kg, FIG. 4
T2 construct: whole blood thromboxane synthesis, which occurs via COX-1; from tissue; host or cells: rat whole blood (ex vivo clotting after oral dosing)
T2 sequence (Q63921 27-602): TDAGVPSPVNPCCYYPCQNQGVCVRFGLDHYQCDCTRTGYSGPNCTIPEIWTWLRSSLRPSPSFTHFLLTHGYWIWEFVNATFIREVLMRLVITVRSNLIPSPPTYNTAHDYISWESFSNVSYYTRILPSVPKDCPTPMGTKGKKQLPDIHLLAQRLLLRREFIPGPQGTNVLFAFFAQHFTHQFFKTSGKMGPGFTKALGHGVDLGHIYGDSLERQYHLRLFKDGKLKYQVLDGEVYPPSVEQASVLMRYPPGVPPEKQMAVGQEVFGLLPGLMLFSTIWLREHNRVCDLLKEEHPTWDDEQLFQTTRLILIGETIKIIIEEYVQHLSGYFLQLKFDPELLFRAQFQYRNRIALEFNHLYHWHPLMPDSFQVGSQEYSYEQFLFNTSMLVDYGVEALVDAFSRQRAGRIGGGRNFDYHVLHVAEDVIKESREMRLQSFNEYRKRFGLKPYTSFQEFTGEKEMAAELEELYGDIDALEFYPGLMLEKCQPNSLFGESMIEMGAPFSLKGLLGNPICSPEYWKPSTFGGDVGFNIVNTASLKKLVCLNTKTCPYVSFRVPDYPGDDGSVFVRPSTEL
Procedure: Inhibition of COX-1 was also measured using the same rats. […] The samples were then centrifuged for 3 min at 9,000 g and the supernatant was frozen at −80° C. for subsequent measurement of thromboxane B2 concentrations using a specific ELISA.
Inhibition of COX-1 was also measured using the same rats, using the same method as described for FIG. 4. […]

[4] = Carrageenan hindpaw edema model; format: in vivo, rat; conditions: oral, dose equimolar to diclofenac at 3 mg/kg, 30 min prior to carrageenan, compared with diclofenac, FIGS. 9, 10
Procedure: Male, Wistar rats weighing 175-200 g were given the test compounds orally 30 min prior to subplantar injection of 100 ul of 1% lambda carrageenan. Paw volume measured using an Ugo Basile hydroplethysmometer prior to carrageenan injection and at 1-h intervals thereafter for 5 h.

[5] = Gastric damage (gastric damage score) in rats after oral dosing; conditions: for gastric damage: oral 60 μmol/kg, evaluated 3 hours later, FIG. 3
[6] = tested on: gastric prostaglandin E2 (PGE2) synthesis (COX-1 and/or COX-2); test: Gastric prostaglandin E2 (PGE2) synthesis in excised rat gastric tissue; format: in vivo; conditions: oral; doses equimolar to diclofenac 20 mg/kg; tissue taken 3 h after administration; FIG. 2
Procedure: Briefly, the tissue samples were minced with scissors for 30 min, then placed in 1 mL of sodium phosphate buffer (pH 7.4) and placed in a shaking water bath (37° C.) for 20 min.

[7] = 60 μmol/kg twice-daily orally for 4 days

- Number of Adherent Leukocytes ([1]; intragastric 60 μmol/kg): 10.2 ± 0.4 per 100 μm vessel length
Compound: COc1ccc2cc([C@H](C)C(=O)O)ccc2c1 [Naproxen, naproxen, reference compound]
- COX-2 activity (exudate PGE2) (COX-2; 60 μmol/kg, FIG. 11): significantly suppressed COX-2 activity as compared to the group treated with vehicle
- Percent Incidence of Gastric Damage ([2]; intragastric 60 μmol/kg): 100%
- gastric ulcer healing (ulcer area) [3, 7]: exhibited similar degrees of healing

Compound: Cc1ccc(Nc2c(F)cccc2Cl)c(CC(=O)Oc2ccc(C(N)=S)cc2)c1 [Compound XVIII, 4-thiocarbamoylphenyl 2-(2-(2-chloro-6-fluorophenylamino)-5-methylphenyl)acetate]
- number of adherent leukocytes compared to the parent NSAID alone ([1]; intragastric 30 μmol/kg): significantly reduced the number of adherent leukocytes per 100 μm vessel length when compared to lumiracoxib alone
- Number of Adherent Leukocytes ([1]; intragastric 30 μmol/kg): 2.3 ± 0.4 per 100 μm vessel length
- percent incidence of gastric damage compared to the parent NSAID alone ([2]; intragastric 30 μmol/kg): still showed no incidences of gastric damage
- Percent Incidence of Gastric Damage ([2]; intragastric 30 μmol/kg): 0%

Compound: CC(=O)Oc1ccccc1C(=O)Oc1ccc(-c2cc(=S)ss2)cc1 [Compound I, 4-(5-thioxo-5H-1,2-dithiol-3-yl)phenyl 2-acetoxybenzoate]
- number of adherent leukocytes compared to the parent NSAID alone ([1]; intragastric 30 μmol/kg): significantly reduced the number of adherent leukocytes per 100 μm vessel length when compared to aspirin alone
- Number of Adherent Leukocytes ([1]; intragastric 30 μmol/kg): 2.5 ± 0.3 per 100 μm vessel length
- percent incidence of gastric damage compared to the parent NSAID alone ([2]; intragastric 30 μmol/kg): significantly reduced the percent incidence of gastric damage when compared to aspirin alone
- Percent Incidence of Gastric Damage ([2]; intragastric 30 μmol/kg): 20%

Compound: NC(=S)c1ccc(OC(=O)Cc2ccccc2Nc2c(Cl)cccc2Cl)cc1 [Compound XVII, [2-(2,6-dichloro-phenylamino)-phenyl]-acetic acid 4-thiocarbamoyl-phenyl ester]
- number of adherent leukocytes compared to the parent NSAID alone ([1]; intragastric 30 μmol/kg): significantly reduced the number of adherent leukocytes per 100 μm vessel length
- Number of Adherent Leukocytes ([1]; intragastric 30 μmol/kg): 2.8 ± 0.5 per 100 μm vessel length
- inhibition at 4.1 mg/kg (COX-1; rat, po, read-out: inhibition of whole blood thromboxane synthesis (COX-1)): > 80%
- paw edema (paw volume increase) [4]: reduced paw edema to a greater extent
- paw edema (paw volume increase) ([4]; 3 mg/kg): comparable to the effect of diclofenac at a dose of 10 mg/kg
- gastric damage score ([5]; rats fasted 18 h, oral, doses equimolar to diclofenac 20 mg/kg, 3 h after administration, FIG. 1): no gastric damage was seen; also recorded: elicited significantly less gastric damage than diclofenac
- percent incidence of gastric damage compared to the parent NSAID alone ([2]; intragastric 30 μmol/kg): significantly reduced the percent incidence of gastric damage when compared to diclofenac alone
- Percent Incidence of Gastric Damage ([2]; intragastric 30 μmol/kg): 20%
- gastric ulcer healing (ulcer area) ([3]; 30 μmol/kg twice-daily orally for 4 days): exhibited significantly greater healing

Compound: COc1ccc2cc(C(C)C(=O)Oc3ccc(C(N)=S)cc3)ccc2c1 (stereo not drawn) [Compound XX, 2-(6-Methoxy-naphthalen-2-yl)-propionic acid 4-thiocarbamyl-phenyl ester]
- COX-1 activity (whole blood thromboxane B2 synthesis) (COX-1): significantly (*p<0.05) inhibited COX-1 activity as compared to the vehicle-treated group; also recorded: significantly better at inhibiting thromboxane B2 synthesis than the ADT-OH equivalent, Compound V
- gastric damage [5]: not detectable; also recorded: elicited significantly less damage than naproxen itself
- gastric ulcer healing (ulcer area) [3, 7]: exhibited significantly greater healing

- Number of Adherent Leukocytes ([1]; intragastric 30 μmol/kg): 1.7 ± 0.3 per 100 μm vessel length
Compound: O=C(Cc1ccccc1Nc1c(F)cccc1Cl)Oc1ccc(-c2cc(=S)ss2)cc1 [Compound III, [2-(2-chloro-6-fluorophenylamino)-phenyl]-acetic acid 4-(5-thioxo-5H-[1,2]dithiol-3-yl)-phenyl ester]
- number of adherent leukocytes compared to the parent NSAID alone ([1]; intragastric 30 μmol/kg): significantly reduced the number of adherent leukocytes per 100 μm vessel length when compared to lumiracoxib alone
- percent incidence of gastric damage compared to the parent NSAID alone ([2]; intragastric 30 μmol/kg): still showed no incidences of gastric damage
- Percent Incidence of Gastric Damage ([2]; intragastric 30 μmol/kg): 0%

Compound: CC(=O)Oc1ccccc1C(=O)Oc1ccc(C(N)=S)cc1 [Compound XVI, 2-Acetoxy-benzoic acid 4-thiocarbamoyl-phenyl ester]
- number of adherent leukocytes compared to the parent NSAID alone ([1]; intragastric 30 μmol/kg): significantly reduced the number of adherent leukocytes per 100 μm vessel length when compared to aspirin alone
- Number of Adherent Leukocytes ([1]; intragastric 30 μmol/kg): 2.3 ± 0.3 per 100 μm vessel length
- percent incidence of gastric damage compared to the parent NSAID alone ([2]; intragastric 30 μmol/kg): significantly reduced the percent incidence of gastric damage when compared to aspirin alone
- Percent Incidence of Gastric Damage ([2]; intragastric 30 μmol/kg): 0%

Compound: Oc1ccc(-c2cc(=S)ss2)cc1 [ADT-OH, 5-p-hydroxyphenyl-1,2-dithiole-3-thione, reference compound]
- COX-2 activity (exudate PGE2) (COX-2; hydrogen sulfide releasing moieties alone, dose not given): neither of the hydrogen sulfide releasing moieties (ADT-OH and TBZ) significantly affected COX-2 activity
- gastric PGE2 synthesis [6]: did not reduce gastric PGE2 synthesis when compared to vehicle
- COX-1 activity (whole blood thromboxane synthesis) (COX-1; hydrogen sulfide releasing moieties alone, dose not given, FIG. 8): neither of the hydrogen sulfide releasing moieties (ADT-OH and TBZ) significantly affected COX-1 activity

Compound: COc1ccc2cc(C(C)C(=O)Oc3ccc(-c4cc(=S)ss4)cc3)ccc2c1 (stereo not drawn) [Compound V, 2-(6-Methoxy-naphthale-2-yl)-propionic acid 4-(5-thioxo-5-H-[1,2]dithiol-3-yl)-phenyl ester]
- COX-2 activity (exudate PGE2) (COX-2; 60 μmol/kg, FIG. 11): significantly suppressed COX-2 activity as compared to the group treated with vehicle
- number of adherent leukocytes compared to the parent NSAID alone ([1]; intragastric 60 μmol/kg): significantly reduced the number of adherent leukocytes per 100 μm vessel length
- Number of Adherent Leukocytes ([1]; intragastric 60 μmol/kg): 3.5 ± 0.7 per 100 μm vessel length
- COX-1 activity (whole blood thromboxane B2 synthesis) (COX-1): significantly (*p<0.05) inhibited COX-1 activity as compared to the vehicle-treated group; also recorded: somewhat less with Compound V than with naproxen or Compound XX
- gastric damage [5]: not detectable; also recorded: elicited significantly less damage than naproxen itself
- percent incidence of gastric damage compared to the parent NSAID alone ([2]; intragastric 60 μmol/kg): significantly reduced the percent incidence of gastric damage when compared to naproxen alone
- Percent Incidence of Gastric Damage ([2]; intragastric 60 μmol/kg): 0%
